{"source": "paper PMC7180572", "about": "“5-Alkylamino-N-phenylpyrazine-2-carboxamides: Design, Preparation, and Antimycobacterial Evaluation” (Molecules, 2020)", "key": {"[1]": {"system": "Mycobacterium tuberculosis H37Ra ITM-M006710 (ATCC 9431)", "test": "Microdilution broth, modified Microplate Alamar Blue Assay, whole cell growth inhibition", "type": "cell-based", "details": "Mycobacterium tuberculosis, read-out: MIC Mtb H37Ra"}, "[2]": {"system": "Mycobacterium smegmatis DSM 43465 (ATCC 607)", "test": "Microdilution broth, modified Microplate Alamar Blue Assay, whole cell growth inhibition", "type": "cell-based", "details": "Mycolicibacterium smegmatis, read-out: MIC Mycobacterium smegmatis"}, "HepG2 cells": {"system": "HepG2 cells", "test": "HepG2 cytotoxicity, CellTiter 96 (MTS) assay", "type": "cell-based, human", "details": "for IC50: Homo sapiens, read-out: HepG2 IC50; for SI, selectivity index: IC50 (HepG2)/MIC against Mtb H37Ra (in µM)"}, "[3]": {"system": "Mycobacterium aurum DSM 43999 (ATCC 23366)", "test": "Microdilution broth, modified Microplate Alamar Blue Assay, whole cell growth inhibition", "type": "cell-based", "details": "Mycolicibacterium aurum, read-out: MIC Mycobacterium aurum"}, "[4]": {"type": "physicochemical", "description": "As a complementary test, final compounds were tested for in vitro activity against selected fungal and bacterial pathogens of clinical importance. The microdilution broth method was performed according to The European Committee on Antimicrobial Susceptibility Testing (EUCAST) instructions with slight modifications. The minimum inhibitory concentration was expressed in µM. Not all compounds were evaluated due to the fact of a problem with solubility which occurred for 18 samples. […] See Supplementary Materials for the list of tested strains, methodology, and full results."}, "[5]": {"system": "M. kansasii CNCTC My 235/80 (ATCC 12478)", "test": "96 well plate microdilution broth method with Alamar Blue", "type": "cell-based", "details": "Mycobacterium kansasii"}, "[6]": {"system": "M. avium ssp. avium CNCTC My 80/72 (ATCC 15769)", "test": "96 well plate microdilution broth method with Alamar Blue", "type": "cell-based", "details": "Mycobacterium avium"}, "[7]": {"system": "Pseudomonas aeruginosa ATCC 27853, CCM 3955", "test": "Antibacterial microdilution broth method (EUCAST)", "type": "cell-based", "details": "read-out: MIC PA"}, "[8]": {"system": "Candida albicans ATCC 24433, CCM 8320", "test": "Antifungal microdilution broth method (EUCAST)", "type": "cell-based"}, "[9]": {"system": "Candida tropicalis ATCC 750, CCM 8264", "test": "Antifungal microdilution broth method (EUCAST)", "type": "cell-based", "details": "read-out: MIC CT"}, "[10]": {"system": "Staphylococcus aureus spp.aureus ATCC 29213, CCM 4223", "test": "Antibacterial microdilution broth method (EUCAST)", "type": "cell-based", "details": "read-out: MIC SA"}, "[11]": {"system": "Staphylococcus aureus methicillin resistant ATCC 43300, CCM 4750", "test": "microbe, parasite or virus in culture", "type": "cell-based", "details": "ATCC 43300 / CCM 4750 / MRSA, read-out: MIC MRSA"}, "[12]": {"system": "Candida parapsilosis ATCC 22019, CCM 8260", "test": "Antifungal microdilution broth method (EUCAST)", "type": "cell-based", "details": "Lodderomyces parapsilosis"}, "[13]": {"system": "Staphylococcus epidermidis ATCC 12228, CCM 4418", "test": "Antibacterial microdilution broth method (EUCAST)", "type": "cell-based", "details": "read-out: MIC SE"}, "[14]": {"system": "Klebsiella pneumoniae ATCC 10031, CCM 4415", "test": "Antibacterial microdilution broth method (EUCAST)"}, "[15]": {"system": "Aspergillus flavus CCM 8363", "test": "Antifungal microdilution broth method (EUCAST)", "type": "cell-based", "details": "read-out: MIC AFla"}, "[16]": {"system": "Aspergillus fumigatus ATCC 204305", "test": "Antifungal microdilution broth method (EUCAST)", "type": "cell-based", "details": "read-out: MIC AF"}, "[17]": {"system": "Enterococcus faecalis ATCC 29212, CCM 4224", "test": "Antibacterial microdilution broth method (EUCAST)", "type": "cell-based", "details": "read-out: MIC EF"}, "[18]": {"system": "Trichophyton interdigitale ATCC 9533, CCM 8377", "test": "Antifungal microdilution broth method (EUCAST)", "type": "cell-based", "details": "read-out: MIC TI"}, "[19]": {"system": "Candida krusei ATCC 6258, CCM 8271", "test": "Antifungal microdilution broth method (EUCAST)", "type": "cell-based", "details": "Pichia kudriavzevii"}, "[20]": {"system": "Acinetobacter baumanii ATCC 19606, DSM 30007", "test": "Antibacterial microdilution broth method (EUCAST)", "type": "cell-based", "details": "Acinetobacter baumannii"}, "[21]": {"system": "Absidia corymbifera CCM 8077 (Lichtheimia corymbifera)", "test": "Antifungal microdilution broth method (EUCAST)", "type": "cell-based", "details": "read-out: MIC AC"}, "[22]": {"system": "Escherichia coli ATCC 25922, CCM 3954", "test": "Antibacterial microdilution broth method (EUCAST)", "type": "cell-based", "details": "read-out: MIC EC"}, "[23]": {"details": "in vitro, Middlebrook 7H9 broth, resazurin"}}, "note": "Like-named read-outs stand apart in the source and are kept apart here.", "data": [{"smiles": "CCCCCCCCNc1cnc(C(=O)Nc2ccc(O)cc2)cn1", "note": "[Compound 3f, N-(4-hydroxyphenyl)-5-(octylamino)pyrazine-2-carboxamide]", "values": [{"measurement": "MIC", "setting": "[1]; [23]", "value": 3.13, "unit": "µg/mL"}, {"measurement": "MIC", "setting": "[2]; [23]", "value": "≥ 250", "unit": "µg/mL"}, {"measurement": "IC50", "setting": "HepG2 cells; HepG2, 24 h incubation, > means higher concentration not reproducible due to precipitation", "value": 60.2, "unit": "µM"}, {"measurement": "SI, selectivity index", "setting": "HepG2 cells", "value": 6.6}, {"measurement": "melting point", "value": "142 to 143", "unit": "°C"}, {"measurement": "MIC", "setting": "[3]; [23]", "value": "≥ 250", "unit": "µg/mL"}, {"measurement": "Solubility problem in antibacterial/antifungal testing", "setting": "[4]", "value": "did not dissolve in DMSO"}, {"measurement": "MIC", "setting": "[5]; ATCC12478, Middlebrook 7H9 broth pH 6.6, read-out: MIC Mycobacterium kansasii", "value": 6.25, "unit": "µg/mL"}, {"measurement": "MIC", "setting": "[6]; ATCC15769, Middlebrook 7H9 broth pH 6.6, read-out: MIC Mycobacterium avium", "value": "> 100", "unit": "µg/mL"}]}, {"smiles": "CCCCCNc1cnc(C(=O)Nc2ccc(O)cc2)cn1", "note": "[Compound 3c, N-(4-hydroxyphenyl)-5-(pentylamino)pyrazine-2-carboxamide]", "values": [{"measurement": "MIC", "setting": "[7]; 72 h", "value": "> 125", "unit": "µM"}, {"measurement": "MIC", "setting": "[7]; 120 h", "value": "> 125", "unit": "µM"}, {"measurement": "MIC", "setting": "[8]; 24 h, read-out: MIC CA", "value": 62.5, "unit": "µM"}, {"measurement": "MIC", "setting": "[8]; 48 h, read-out: MIC CA", "value": 62.5, "unit": "µM"}, {"measurement": "MIC", "setting": "[8]; read-out: MIC CA (Candida albicans)", "value": 62.5, "unit": "µM"}, {"measurement": "MIC", "setting": "[1]; MIC converted to µM", "value": 13, "unit": "µM"}, {"measurement": "MIC", "setting": "[1]; [23]", "value": 3.91, "unit": "µg/mL"}, {"measurement": "MIC", "setting": "[2]", "value": 31.2, "unit": "µg/mL"}, {"measurement": "HepG2 IC50", "setting": "HepG2 cells; 24 h incubation, > means higher concentration not reproducible due to precipitation", "value": "above the tested range of concentrations"}, {"measurement": "IC50", "setting": "HepG2 cells; HepG2, 24 h", "value": "> 500", "unit": "µM"}, {"measurement": "SI, selectivity index", "setting": "HepG2 cells", "value": ">38.4"}, {"measurement": "MIC", "setting": "[9]; 24 h", "value": "> 125", "unit": "µM"}, {"measurement": "MIC", "setting": "[9]; 48 h", "value": "> 125", "unit": "µM"}, {"measurement": "melting point", "value": "162.6 to 166.8", "unit": "°C"}, {"measurement": "MIC", "setting": "[10]; 24 h", "value": "> 125", "unit": "µM"}, {"measurement": "MIC", "setting": "[10]; 48 h", "value": "> 125", "unit": "µM"}, {"measurement": "MIC", "setting": "[3]", "value": "≥ 500", "unit": "µg/mL"}, {"measurement": "MIC", "setting": "[11]; 24 h", "value": "> 125", "unit": "µM"}, {"measurement": "MIC", "setting": "[11]; 48 h", "value": "> 125", "unit": "µM"}, {"measurement": "MIC", "setting": "[12]; 24 h, read-out: MIC CP", "value": "> 125", "unit": "µM"}, {"measurement": "MIC", "setting": "[12]; 48 h, read-out: MIC CP", "value": "> 125", "unit": "µM"}, {"measurement": "MIC", "setting": "[12]; read-out: MIC CP (Candida parapsilosis)", "value": "> 125", "unit": "µM"}, {"measurement": "MIC", "setting": "[13]; 24 h", "value": "> 125", "unit": "µM"}, {"measurement": "MIC", "setting": "[13]; 48 h", "value": "> 125", "unit": "µM"}, {"measurement": "MIC KP", "setting": "[14]; 24h", "value": "> 125", "unit": "µM"}, {"measurement": "MIC KP", "setting": "[14]; 48h", "value": "> 125", "unit": "µM"}, {"measurement": "MIC", "setting": "[15]; CCM8363, 24 h", "value": "> 125", "unit": "µM"}, {"measurement": "MIC", "setting": "[15]; CCM8363, 48 h", "value": "> 125", "unit": "µM"}, {"measurement": "MIC", "setting": "[5]; ATCC12478, pH 6.6, read-out: MIC Mycobacterium kansasii", "value": 12.5, "unit": "µg/mL"}, {"measurement": "MIC", "setting": "[16]; ATCC204305, 24 h", "value": "> 125", "unit": "µM"}, {"measurement": "MIC", "setting": "[16]; ATCC204305, 48 h", "value": "> 125", "unit": "µM"}, {"measurement": "MIC", "setting": "[17]; 24 h", "value": "> 125", "unit": "µM"}, {"measurement": "MIC", "setting": "[17]; 48 h", "value": "> 125", "unit": "µM"}, {"measurement": "MIC", "setting": "[6]; ATCC15769, pH 6.6, read-out: MIC Mycobacterium avium", "value": 50, "unit": "µg/mL"}, {"measurement": "MIC", "setting": "[18]; 72 h", "value": "> 125", "unit": "µM"}, {"measurement": "MIC", "setting": "[18]; 120 h", "value": "> 125", "unit": "µM"}, {"measurement": "MIC", "setting": "[19]; 24 h, read-out: MIC CK", "value": "> 125", "unit": "µM"}, {"measurement": "MIC", "setting": "[19]; 48 h, read-out: MIC CK", "value": "> 125", "unit": "µM"}, {"measurement": "MIC", "setting": "[19]; read-out: MIC CK (Candida krusei)", "value": "> 125", "unit": "µM"}, {"measurement": "MIC", "setting": "[20]; 24h", "value": "> 125", "unit": "µM"}, {"measurement": "MIC", "setting": "[20]; 48h", "value": "> 125", "unit": "µM"}, {"measurement": "MIC", "setting": "[21]; CCM8077, 24 h", "value": "> 125", "unit": "µM"}, {"measurement": "MIC", "setting": "[21]; CCM8077, 48 h", "value": "> 125", "unit": "µM"}, {"measurement": "MIC", "setting": "[22]; 24 h", "value": "> 125", "unit": "µM"}, {"measurement": "MIC", "setting": "[22]; 48 h", "value": "> 125", "unit": "µM"}]}]}
